For orientation: pEC50 means the EC50 on a negative log10 scale, so that one unit is a factor of ten. A higher pEC50 goes with a low EC50.

We go through 31 compounds from US8703805B2 (Exelixis Patent Company LLC, priority 2005, dated 2014).

pEC50: −log10 of the molar value. Some results are limits rather than exact numbers.

In this test the test system is LXRα and/or LXRβ. Kind of test: LXR/LXRE co-transfection assay (luciferase reporter, CV-1 cells). It counts as cell-based, human. Particulars: IC50 or EC50 for LXR (LXRα and/or LXRβ, not distinguished), tested as described in Example 109, CV-1 cells. The essentials: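 Luciferase readout after 20 h compound exposure at 37 °C in CV-1 cells transiently expressing human LXRα or LXRβ with RXRα and an LXRE-driven reporter. Dose-response over 8 points at ½-log spacing, 4 wells each, fitted for EC50/IC50; values average ≥3 independent experiments, efficacy as % of high control.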
(In general: In a reporter assay the amount or activity of a reporter protein is the signal.)
In turn, `CC(C)(O)c1cc(-c2ccc(-c3cccc(S(C)(=O)=O)c3)s2)n(-c2c(F)cccc2Cl)n1` [Example 1344, 2-[1-(2-chloro-6-fluorophenyl)-5-{5-[3-(methylsulfonyl)phenyl]-2-thienyl}-1H-pyrazol-3-yl]propan-2-ol] showed a pEC50 greater than 6.00.
As to `CC(C)c1ccccc1-n1nc(C(C)(C)O)cc1-c1ccc(-c2cccc(S(C)(=O)=O)c2)s1` [Example 1345, 2-(1-[2-(1-methylethyl)phenyl]-5-{5-[3-(methylsulfonyl)phenyl]-2-thienyl}-1H-pyrazol-3-yl)propan-2-ol], the pEC50 is greater than 6.00.
For the compound `CC(C)(O)c1cc(-c2ccc(-c3cccc(S(C)(=O)=O)c3)s2)n(-c2cccnc2)n1` [Example 1346, 2-(5-{5-[3-(methylsulfonyl)phenyl]-2-thienyl}-1-pyridin-3-yl-1H-pyrazol-3-yl)propan-2-ol], the pEC50 was greater than 6.00.
`CC(C)(O)c1cc(-c2ccc(-c3cccc(S(C)(=O)=O)c3)s2)n(-c2cc(C(F)(F)F)ccc2Cl)n1` [Example 1347, 2-(1-[2-chloro-5-(trifluoromethyl)phenyl]-5-{5-[3-(methylsulfonyl)phenyl]-2-thienyl}-1H-pyrazol-3-yl)propan-2-ol] had a pEC50 of 5.00 to 6.00.
With `CC(C)(O)c1nn(-c2c(Cl)cccc2Cl)c(-c2ccc(-c3cccc(S(C)(=O)=O)c3)s2)c1Cl` [Example 1348, 2-[4-chloro-1-(2,6-dichlorophenyl)-5-{5-[3-(methylsulfonyl)phenyl]-2-thienyl}-1H-pyrazol-3-yl]propan-2-ol], the pEC50 is greater than 6.00.
`CC(C)(O)c1nn(-c2ccccc2C(F)(F)F)c(-c2ccc(-c3cccc(S(C)(=O)=O)c3)s2)c1Br` [Example 1349, 2-(4-bromo-5-{5-[3-(methylsulfonyl)phenyl]-2-thienyl}-1-[2-(trifluoromethyl)phenyl]-1H-pyrazol-3-yl)propan-2-ol] showed a pEC50 greater than 6.00.
`CC(C)(O)c1nn(-c2ccccc2C(F)(F)F)c(-c2ccc(-c3cccc(S(C)(=O)=O)c3)s2)c1Cl` [Example 1350, 2-(4-chloro-5-{5-[3-(methylsulfonyl)phenyl]-2-thienyl}-1-[2-(trifluoromethyl)phenyl]-1H-pyrazol-3-yl)propan-2-ol] showed a pEC50 greater than 6.00.
As to `CC(C)(O)c1cc(-c2ccc(-c3cccc(S(C)(=O)=O)c3)s2)n(-c2cnccc2C(F)(F)F)n1` [Example 1351, 2-(5-{5-[3-(methylsulfonyl)phenyl]-2-thienyl}-1-[4-(trifluoromethyl)pyridin-3-yl]-1H-pyrazol-3-yl)propan-2-ol], the pEC50 is 5.00 to 6.00.
The compound `Cc1cccc(C)c1-n1nc(C(C)(C)O)cc1-c1ccc(-c2cccc(S(C)(=O)=O)c2)s1` [Example 1352, 2-[1-(2,6-dimethylphenyl)-5-{5-[3-(methylsulfonyl)phenyl]-2-thienyl}-1H-pyrazol-3-yl]propan-2-ol] had a pEC50 greater than 6.00.
The compound `CC(C)(O)c1cc(-c2ccc(-c3cccc(S(C)(=O)=O)c3)s2)n(-c2c(F)cccc2C(F)(F)F)n1` [Example 1353, 2-(1-[2-fluoro-6-(trifluoromethyl)phenyl]-5-{5-[3-(methylsulfonyl)phenyl]-2-thienyl}-1H-pyrazol-3-yl)propan-2-ol] had a pEC50 greater than 6.00.
Under `COC(=O)CNC(=O)c1ccc(-c2cc(C(F)(F)F)nn2-c2ccccc2Cl)cc1` [Example 1354, methyl N-({4-[1-(2-chlorophenyl)-3-(trifluoromethyl)-1H-pyrazol-5-yl]phenyl}carbonyl)glycinate] stands 5.00 to 6.00; under `O=C(NC1CCSC1=O)c1ccc(-c2cc(C(F)(F)F)nn2-c2ccccc2Cl)cc1` (stereo not shown) [Example 1355, 4-[1-(2-chlorophenyl)-3-(trifluoromethyl)-1H-pyrazol-5-yl]-N-(2-oxotetrahydro-3-thienyl)benzamide], 5.00 to 6.00; under `COC(=O)CCNC(=O)c1ccc(-c2cc(C(F)(F)F)nn2-c2ccccc2Cl)cc1` [Example 1356, methyl N-({4-[1-(2-chlorophenyl)-3-(trifluoromethyl)-1H-pyrazol-5-yl]phenyl}carbonyl)-beta-alaninate], 5.00 to 6.00.
Turning to `CC(C)(O)c1nn(-c2cccc(Cl)c2F)c(-c2ccc(-c3cccc(S(C)(=O)=O)c3)s2)c1Br` [Example 1357, 2-[4-bromo-1-(3-chloro-2-fluorophenyl)-5-{5-[3-(methylsulfonyl)phenyl]-2-thienyl}-1H-pyrazol-3-yl]propan-2-ol], the pEC50 was greater than 6.00.
In turn, `CCc1ccccc1-n1nc(C(C)(C)O)c(Br)c1-c1ccc(-c2cccc(S(C)(=O)=O)c2)s1` [Example 1358, 2-[4-bromo-1-(2-ethylphenyl)-5-{5-[3-(methylsulfonyl)phenyl]-2-thienyl}-1H-pyrazol-3-yl]propan-2-ol] gave a pEC50 greater than 6.00.
`CC(C)(O)c1nn(-c2ccccc2OC(F)(F)F)c(-c2ccc(-c3cccc(S(C)(=O)=O)c3)s2)c1Br` [Example 1359, 2-(4-bromo-5-{5-[3-(methylsulfonyl)phenyl]-2-thienyl)-1-{2-[(trifluoromethyl)oxy]phenyl}-1H-pyrazol-3-yl)propan-2-ol]: the negative logarithm of the EC50 (pEC50) was greater than 6.00.
Compound `CC(C)(O)c1nn(-c2ccccc2Br)c(-c2ccc(-c3cccc(S(C)(=O)=O)c3)s2)c1Br` [Example 1360, 2-[4-bromo-1-(2-bromophenyl)-5-{5-[3-(methylsulfonyl)phenyl]-2-thienyl}-1H-pyrazol-3-yl]propan-2-ol] had a pEC50 greater than 6.00.
As for `Cc1c(F)cccc1-n1nc(C(C)(C)O)cc1-c1ccc(-c2cccc(S(C)(=O)=O)c2)s1` [Example 1361, 2-[1-(3-fluoro-2-methylphenyl)-5-{5-[3-(methylsulfonyl)phenyl]-2-thienyl}-1H-pyrazol-3-yl]propan-2-ol], the pEC50 is greater than 6.00.
Turning to `O=C(O)CNC(=O)c1ccc(-c2cc(C(F)(F)F)nn2-c2ccccc2Cl)cc1` [Example 1362, N-({4-[1-(2-chlorophenyl)-3-(trifluoromethyl)-1H-pyrazol-5-yl]phenyl}carbonyl)glycine], the pEC50 is 5.00 to 6.00.
With `O=C(O)CCNC(=O)c1ccc(-c2cc(C(F)(F)F)nn2-c2ccccc2Cl)cc1` [Example 1363, N-({4-[1-(2-chlorophenyl)-3-(trifluoromethyl)-1H-pyrazol-5-yl]phenyl}carbonyl)-beta-alanine] the figure was 5.00 to 6.00; with `CS(=O)(=O)CCNC(=O)c1ccc(-c2cc(C(F)(F)F)nn2-c2ccccc2Cl)cc1` [Example 1364, 4-[1-(2-chlorophenyl)-3-(trifluoromethyl)-1H-pyrazol-5-yl]-N-[2-(methylsulfonyl)ethyl]benzamide], 5.00 to 6.00; with `CS(=O)(=O)CCN1CCN(C(=O)c2ccc(-c3cc(C(F)(F)F)nn3-c3ccccc3Cl)cc2)CC1` [Example 1365, 1-({4-[1-(2-chlorophenyl)-3-(trifluoromethyl)-1H-pyrazol-5-yl]phenyl}carbonyl)-4-[2-(methylsulfonyl)ethyl]piperazine], 5.00 to 6.00.
As for `CC(C)(O)c1nn(-c2cccc(Cl)c2F)c(-c2ccc(-c3cccc(S(C)(=O)=O)c3)s2)c1Cl` [Example 1366, 2-[4-chloro-1-(3-chloro-2-fluorophenyl)-5-{5-[3-(methylsulfonyl)phenyl]-2-thienyl}-1H-pyrazol-3-yl]propan-2-ol], the pEC50 is greater than 6.00.
For the compound `CC(C)(O)c1nn(-c2ccccc2OC(F)(F)F)c(-c2ccc(-c3cccc(S(C)(=O)=O)c3)s2)c1Cl` [Example 1367, 2-(4-chloro-5-{5-[3-(methylsulfonyl)phenyl]-2-thienyl}-1-{2-[(trifluoromethyl)oxy]phenyl}-1H-pyrazol-3-yl)propan-2-ol], the pEC50 is greater than 6.00.
`CC(C)(O)c1nn(-c2ccccc2Br)c(-c2ccc(-c3cccc(S(C)(=O)=O)c3)s2)c1Cl` [Example 1368, 2-[1-(2-bromophenyl)-4-chloro-5-{5-[3-(methylsulfonyl)phenyl]-2-thienyl}-1H-pyrazol-3-yl]propan-2-ol] had a pEC50 greater than 6.00.
Under `CC(C)(O)c1nn(-c2cnccc2C(F)(F)F)c(-c2ccc(-c3cccc(S(C)(=O)=O)c3)s2)c1Br` [Example 1369, 2-(4-bromo-5-{5-[3-(methylsulfonyl)phenyl]-2-thienyl}-1-[4-(trifluoromethyl)pyridin-3-yl]-1H-pyrazol-3-yl)propan-2-ol] stands greater than 6.00.
Under `CC(C)(O)c1nn(-c2cccc(F)c2Cl)c(-c2ccc(-c3cccc(S(C)(=O)=O)c3)s2)c1Cl` [Example 1371, 2-[4-chloro-1-(2-chloro-3-fluorophenyl)-5-{5-[3-(methylsulfonyl)phenyl]-2-thienyl}-1H-pyrazol-3-yl]propan-2-ol] stands greater than 6.00; under `CC(C)(O)c1nn(-c2cccc(F)c2Cl)c(-c2ccc(-c3cccc(S(C)(=O)=O)c3)s2)c1Br` [Example 1372, 2-[4-bromo-1-(2-chloro-3-fluorophenyl)-5-{5-[3-(methylsulfonyl)phenyl]-2-thienyl}-1H-pyrazol-3-yl]propan-2-ol], greater than 6.00.
With `CCc1ccccc1-n1nc(C(C)(C)O)c(Cl)c1-c1ccc(-c2cccc(S(C)(=O)=O)c2)s1` [Example 1373, 2-[4-chloro-1-(2-ethylphenyl)-5-{5-[3-(methylsulfonyl)phenyl]-2-thienyl}-1H-pyrazol-3-yl]propan-2-ol] the figure was greater than 6.00; with `Cn1c(-c2cccc(S(C)(=O)=O)c2)ccc1-c1cc(C(C)(C)O)nn1-c1ccccc1Cl` [Example 1383, 2-(1-(2-chlorophenyl)-5-(1-methyl-5-(3-(methylsulfonyl)phenyl)-1H-pyrrol-2-yl)-1H-pyrazol-3-yl)propan-2-ol], greater than 6.00; with `Cc1cc(-c2cccc(S(C)(=O)=O)c2)ccc1-c1cc(C(C)(C)O)nn1Cc1cccc(Cl)c1Cl` [Example 1384, 2-(1-(2,3-dichlorobenzyl)-5-(3-methyl-3′-(methylsulfonyl)biphenyl-4-yl)-1H-pyrazol-3-yl)propan-2-ol], greater than 6.00.
